The values that follow come from the METLIN SMRT retention time set (Domingo-Almenara et al. 2019).

A short description of this data set: gradient 5% acetonitrile 3 min, to 50% in 2 min, to 85% in 15 min, held 3 min, 100 µL/min. Conditions: column: Zorbax Extend-C18 2.1 x 50 mm; eluents: water / acetonitrile, 0.1% formic acid. The method in brief:
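Mixtures of ~100 pure standards were chromatographed on a Zorbax Extend-C18 column (2.1 × 50 mm, 1.8 μm) at 100 μL/min using water and acetonitrile, each with 0.1% formic acid. Detection used a quadrupole time-of-flight mass spectrometer in positive and negative ionization mode, and data collection spanned 3 months. Retention time was obtained from adduct peaks picked computationally and each checked manually.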
`CC1CCC(NC(=O)CN2C(=O)C(C(=O)N3CCCCC3)Sc3ccccc32)CC1` (centres undefined) gave an RP-LC retention time of 1090 s.
`COc1ccccc1C1(CNC(=O)Cc2cn(C)c3ccccc23)CCOCC1` returned an RP-LC retention time of 815 s.
The same measure for `CCc1nc(-c2csc(S(=O)(=O)N3CCC(C(=O)Nc4cccc(C#N)c4)CC3)c2)no1`: 966 s; for `CN(CC(=O)O)S(=O)(=O)c1ccc(Cl)c(-c2nnc(-c3ccccc3)o2)c1`: 819 s.
Regarding `Cc1nc(-c2ccc(-c3noc(COc4ccccc4)n3)cc2)cs1`, the RP-LC retention time is 1180 s.
`COc1ccc(-c2noc(N3CCC(Cc4ccccc4)CC3)n2)cc1OC`: the RP-LC retention time came to 1240 s.
As for `CCn1c(=O)sc2cc(S(=O)(=O)N3CCC(C(=O)Nc4ncccc4C)CC3)ccc21`, the RP-LC retention time came to 666 s.
Compound `c1cn(Cc2nc(-c3ccc4c(c3)OCO4)no2)cn1` registered an RP-LC retention time of 605 s.
`CCc1ccc(CNC(=O)C2CCN(Cc3cn(C)c4ccc(Cl)cc34)CC2)cc1`: the RP-LC retention time came out at 793 s.
Under `COc1ccc(NC(=O)Cn2nc3n(c2=O)CCCC3)c(OC)c1` stands 642 s; under `CN1CCN(C(=O)c2csc(N3CCN(c4ccc(Cl)cc4)CC3)n2)CC1`, 686 s.
The same measure for `COc1ccc(C(C)NC(=O)c2ccc3ncnc(N4CCCC4)c3c2)cc1` (centres undefined): 646 s.
With `Cc1ccc(C)c(-c2cc3c(=O)n(Cc4noc(-c5ccc6c(c5)OCO6)n4)ccn3n2)c1`, the RP-LC retention time is 1120 s.
The same measure for `Cc1ccc2c(c1)N(S(C)(=O)=O)CCC(C(=O)Nc1ccc(C)c(C)c1)O2` (centres undefined): 912 s; for `O=C(Cc1ccc(Br)cc1)NC1CCN(c2cc(-c3ccc(Cl)cc3)[nH]n2)C1` (centres undefined): 854 s; for `O=C(c1[nH]nc2c1CCc1ccccc1-2)N1CCC(c2noc(-c3ccncc3)n2)C1` (centres undefined): 755 s.
The same measure for `CCc1nc(-c2cc(S(=O)(=O)N3CCC(C(=O)N4CCCCCC4)CC3)c(C)s2)no1`: 1030 s; for `Cc1cc(=O)n(CC(=O)Nc2ccc(F)cc2C)c(N)n1`: 586 s; for `COC(=O)CNC(=O)N1CCCN(c2nc3cc(F)ccc3n3cccc23)CC1`: 612 s.
Under `O=c1ccn(-c2ccc(F)c(F)c2)nc1-c1nc(-c2ccccc2)no1` stands 878 s; under `CN(C)S(=O)(=O)c1ccc(C(=O)N2CCC(Oc3nc4ccccc4s3)CC2)cc1`, 892 s; under `COc1ccc(CCNC(=O)c2ccc3[nH]c4c(c3c2)CN(C(C)=O)CC4)cc1OC`, 650 s.
The compound `Cc1cccn2c(=O)c(-c3nn[nH]n3)cnc12` registered an RP-LC retention time of 646 s.
`NC(=O)C1CCN(C2CC(=O)N(c3ccc4c(c3)OCCO4)C2=O)CC1` (centres undefined) came in with an RP-LC retention time of 568 s.
As for `CCOC(=O)c1[nH]c(C)c(CCC(=O)N2CCCC(C(=O)NCc3ccc(N(C)C)cc3)C2)c1C` (centres undefined), the RP-LC retention time turned out to be 629 s.
In the case of `Cc1cccc(-c2nc(NCCCN3CCOCC3)c3ccccc3n2)c1`, the RP-LC retention time came to 819 s.
In the case of `Cc1ccc2ncn(C3CCN(S(=O)(=O)c4ccc(C)c(C)c4)CC3)c(=O)c2c1`, the RP-LC retention time turned out to be 998 s.
Under `O=C(Nc1ccc(Oc2ccc(NC(=O)Nc3ccccc3Cl)cc2)cc1)Nc1ccccc1Cl` stands 1250 s.
`CCOc1ccc(-n2c(=O)c3sccc3n(Cc3nc(-c4ccccc4Cl)no3)c2=O)cc1`: the RP-LC retention time was 1020 s.
Under `Cc1ccc(-n2nc(C(=O)N3CCN(c4ncccn4)CC3)c3ncn(C)c(=O)c32)cc1` stands 726 s; under `COc1cccc(NC(=O)Cn2nc3cc(C)nc(N4CCCC4)n3c2=O)c1`, 760 s.
The same measure for `O=C(CN1CCN(Cc2ccc(F)cc2)C1=O)NCC1CCCCC1`: 854 s; for `CC(C)N1CCN(C(=O)CN2CCN(Cc3ccccc3)C2=O)CC1`: 565 s; for `COCCn1c(SCc2nc(-c3ccccc3)no2)nc2cc3c(cc2c1=O)OCO3`: 1040 s.
The same measure for `CCc1noc(NC(C)=O)c1-c1ccc(C)c(S(=O)(=O)N2CCc3ccccc32)c1`: 920 s; for `CCOc1ccccc1NC(=O)C1CCCN1S(=O)(=O)c1cc2c(cc1C)NC(=O)C(C)O2` (centres undefined): 784 s.
As for `CCNC(=O)c1sc(Nc2ccc(Cl)cn2)nc1C`, the RP-LC retention time was determined as 726 s.
The same measure for `CN(C)C(=O)N1CCc2nn(Cc3ccccc3)c(=O)n2CC1`: 649 s; for `Cc1nc2ccn(Cc3ccco3)c(=O)c2cc1C(=O)N1CCC(C)CC1`: 746 s; for `O=C(Nc1ccc(Cl)cc1F)C1Oc2ccccc2NC1=O` (centres undefined): 824 s.
As for `COc1ccc2c(c1)CCc1sc(NC(=O)c3ccc(Br)cc3)nc1-2`, the RP-LC retention time is 1190 s.
Under `COc1ccccc1C(=O)NC1CCN(c2cc(C)cc(C)c2)C1=O` (centres undefined) stands 928 s; under `CCc1cc(=O)n(Cc2ncc(C)c(OC)c2C)c(N2CCOCC2)n1`, 620 s; under `CCc1nc(-c2csc(S(=O)(=O)N3CCC(C(=O)NCc4cccs4)CC3)c2)no1`, 860 s.
The same measure for `Cc1cc(Nc2nc(C(=O)NCCN3CCOCC3)cc3occc23)ccc1Br`: 621 s; for `COC(=O)c1cnc2nc(C)ccc2c1Nc1ccccc1`: 627 s.
The same measure for `COC(=O)c1sc2ccccc2c1NC(=O)c1cccc(OC)c1OC`: 1020 s; for `O=C1CCCc2c1cc(C(=O)NCc1cccnc1)c(=O)n2-c1ccc(C(F)(F)F)cc1`: 644 s.
As to `CCC(=O)Nc1ccc2c(c1)CN(C(=O)c1ccc(C)cc1)C(C(=O)N1CCCC1)C2` (centres undefined), the RP-LC retention time stood at 738 s.
Take `CCCCCNC(=O)C1CCN(c2ccc(Sc3cc(C)ccc3C)nn2)CC1`: the RP-LC retention time was 930 s.
Under `CCn1ncc(Cl)c1C(=O)N1CCCC1c1cc(C)no1` (centres undefined) stands 741 s.
Under `CCOc1ccc2nc(N3CCCC(C(=O)NCCc4ccc(S(N)(=O)=O)cc4)C3)sc2c1` (centres undefined) stands 730 s; under `CCc1ccc(-c2cc3c(=O)n(CC(O)c4ccccc4OC)ccn3n2)cc1` (centres undefined), 790 s; under `COc1ccc(C(=S)N2CCN(c3ccccc3Cl)CC2)cc1OC`, 1260 s.
`CNc1nc(Nc2cccc(OC)c2)nc2ccccc12` showed an RP-LC retention time of 650 s.
On to `O=C(Nc1ccccc1)C1CCc2nc(N3CCCCC3)ncc2C1` (centres undefined), for which the RP-LC retention time turned out to be 745 s.
Turning to `CCn1c(=O)c2ccccc2n(Cc2nc(-c3ccc(SC)cc3)no2)c1=O`, the RP-LC retention time worked out at 926 s.
The same measure for `Cc1oc(-c2[nH]ncc2C(=O)N(C)C)cc1S(=O)(=O)NCc1ccc(Cl)cc1`: 725 s.
The same measure for `COc1ccc(CNC(=O)c2cn(C)nc2S(=O)(=O)N2CCSCC2)cc1`: 818 s.
The compound `FC(F)(F)c1cccc(Nc2c(-c3ccc(Cl)cc3)nc3cnccn23)c1` displayed an RP-LC retention time of 1090 s.
As for `CCC(=O)NCC12CCCC=C1N(C)C(=O)CC2` (centres undefined), the RP-LC retention time was determined as 648 s.
`COCc1noc([C@@H]2CN(Cc3ccc(Br)o3)C[C@H]2C(N)=O)n1` came in with an RP-LC retention time of 565 s.
Under `COc1ccc(CC(=O)N2CCN(c3nc4ccncc4n(C)c3=O)CC2)c(Cl)c1` stands 645 s.
`O=C(Nc1cccc(F)c1)c1nnc(C(=O)N2CCC(C(=O)NC3CCCC3)CC2)s1`: the RP-LC retention time worked out at 786 s.
Regarding `Cc1nnc(SCC(=O)NCc2ccccc2)c2nn(-c3ccccc3)c(C)c12`, the RP-LC retention time is 643 s.
Regarding `COc1ccc(C(=O)N2CCC3(CC2)N=C(c2cccc(Br)c2)NO3)c(OC)c1`, the RP-LC retention time stood at 832 s.
The same measure for `CCOC(=O)c1[nH]c(C)c(CCC(=O)NCCN2CCN(C)CC2)c1C`: 547 s; for `O=C(NC1CC1)C1CCN(Cc2cc3ccccc3n2Cc2ccccc2)CC1`: 694 s.
Under `CCCC(=O)Nc1nc2ccc(CCC(=O)Nc3cc(Cl)c(OC)cc3OC)cc2s1` stands 920 s; under `O=C(Cn1cccc1-c1nc(-c2ccc(Cl)cc2)cs1)N1CCOCC1`, 1040 s; under `O=C(CN1C(=O)CCC1=O)N(Cc1ccsc1)Cc1ccco1`, 710 s.
Under `CSc1ccc(CCNC(=O)C2CCCN(c3ncnc4c3nc3n4CCCCC3)C2)cc1` (centres undefined) stands 820 s; under `O=C(Cn1c(=O)n(-c2ccc(F)cc2)c2ncccc21)N1CCCCC1`, 754 s; under `COc1ccc(NC(=O)CN2C(=O)C(C)(C)c3ccccc32)cc1OC`, 778 s.
Regarding `CCCCNC(=O)C1CCN(C(=O)c2ncn3c2COC(c2ccc(F)cc2)C3)CC1` (centres undefined), the RP-LC retention time was determined as 722 s.
Under `COc1cccc(CNC(=O)C2(C)CCCN(C(=O)Nc3cc(C)cc(C)c3)C2)c1` (centres undefined) stands 961 s.
Under `COCCN(CC(=O)N1CCc2sccc2C1COc1ccccc1OC)C(C)=O` (centres undefined) stands 757 s; under `CCN(CC)C(=O)c1ccc2nc(-c3ccc(Cl)cc3)cn2c1`, 681 s.
Under `CCc1ccc(NC(=O)N2CCN(c3cnn4c(C)nnc4c3)CC2)cc1` stands 649 s.
